Reference: ChEMBL document CHEMBL1201862, “PubChem BioAssay data set” (2004)
Calls of active or inactive are those of the source. For most assays here, no stated cut-off is given here; in the data, actives have a measured IC50 and inactives only a lower limit.

Columns and labels:
[1] = molecular target: T1, Heat shock factor protein 1 (Mus musculus, UniProt P38532); test: HSF1 potentiators in luciferase reporter cells, confirmation, cell-based, NIH3T3, luminescence, dose retest (AID 435004); format: functional;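 further: stress induced by proteasome inhibitor MG132 added 30 min after compound; luciferase reporter driven by HSF1 response element in NIH3T3 cells; actives raise luminescence as potentiators of the MG132 stress response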
T1 sequence (P38532 whole entry): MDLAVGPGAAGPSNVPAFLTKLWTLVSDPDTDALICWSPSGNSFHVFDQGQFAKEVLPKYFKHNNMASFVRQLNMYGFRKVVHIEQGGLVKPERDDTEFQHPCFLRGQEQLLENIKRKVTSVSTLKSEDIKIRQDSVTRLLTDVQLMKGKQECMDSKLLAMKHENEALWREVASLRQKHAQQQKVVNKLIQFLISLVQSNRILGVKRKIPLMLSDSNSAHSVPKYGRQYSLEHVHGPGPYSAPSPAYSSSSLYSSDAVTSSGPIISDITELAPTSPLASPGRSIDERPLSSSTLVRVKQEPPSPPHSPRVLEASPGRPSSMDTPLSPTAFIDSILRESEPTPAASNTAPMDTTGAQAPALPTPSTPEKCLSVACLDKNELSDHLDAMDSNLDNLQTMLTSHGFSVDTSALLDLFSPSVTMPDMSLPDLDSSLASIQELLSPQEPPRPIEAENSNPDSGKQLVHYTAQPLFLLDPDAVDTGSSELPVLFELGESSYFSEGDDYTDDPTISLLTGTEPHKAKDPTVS

[2] = molecular target: DNA damage-inducible transcript 3 protein (Mus musculus, UniProt P35639); format: functional, Cricetulus griseus
Sequence of DNA damage-inducible transcript 3 protein (P35639 whole entry): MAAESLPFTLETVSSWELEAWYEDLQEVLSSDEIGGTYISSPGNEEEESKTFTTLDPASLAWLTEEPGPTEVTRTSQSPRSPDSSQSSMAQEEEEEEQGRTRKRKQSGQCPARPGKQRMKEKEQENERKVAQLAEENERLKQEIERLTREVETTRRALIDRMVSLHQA

[3] = molecular target: T2, Hexokinase HKDC1 (Homo sapiens, UniProt Q2TB90); test: HKDC1 hexokinase activators, dose response, biochemical, W721R variant (AID 504730); format: functional
T2 sequence (Q2TB90 whole entry): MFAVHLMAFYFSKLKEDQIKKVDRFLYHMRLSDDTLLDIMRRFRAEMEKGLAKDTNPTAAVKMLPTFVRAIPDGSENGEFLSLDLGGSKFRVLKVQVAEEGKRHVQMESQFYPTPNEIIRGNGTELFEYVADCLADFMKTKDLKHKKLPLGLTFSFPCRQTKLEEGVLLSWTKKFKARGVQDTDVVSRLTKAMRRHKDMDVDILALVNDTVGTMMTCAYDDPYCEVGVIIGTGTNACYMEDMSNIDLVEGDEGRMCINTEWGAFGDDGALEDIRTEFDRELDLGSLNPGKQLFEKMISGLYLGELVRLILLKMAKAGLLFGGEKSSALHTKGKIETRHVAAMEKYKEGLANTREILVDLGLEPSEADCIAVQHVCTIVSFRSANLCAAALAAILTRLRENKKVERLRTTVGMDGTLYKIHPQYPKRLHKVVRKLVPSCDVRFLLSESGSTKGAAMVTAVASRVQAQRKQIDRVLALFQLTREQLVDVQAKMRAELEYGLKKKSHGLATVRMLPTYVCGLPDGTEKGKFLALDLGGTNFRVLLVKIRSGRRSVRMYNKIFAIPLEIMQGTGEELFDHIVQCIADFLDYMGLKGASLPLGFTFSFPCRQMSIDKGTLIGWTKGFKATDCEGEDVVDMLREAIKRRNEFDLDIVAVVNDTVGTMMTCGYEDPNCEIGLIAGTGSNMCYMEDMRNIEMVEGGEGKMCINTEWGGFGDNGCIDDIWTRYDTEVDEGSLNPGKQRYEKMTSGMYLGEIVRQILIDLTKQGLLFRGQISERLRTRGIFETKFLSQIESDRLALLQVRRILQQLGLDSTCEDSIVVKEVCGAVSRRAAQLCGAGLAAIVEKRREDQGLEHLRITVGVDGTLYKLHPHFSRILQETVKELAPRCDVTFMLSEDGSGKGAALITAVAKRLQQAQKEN

[4] = molecular target: T3, Hexokinase-1 (Homo sapiens, UniProt P19367); test: hexokinase 1 activators, dose response, selectivity assay for HKDC1 activator project, biochemical (AID 504762); format: functional
T3 sequence (P19367 whole entry): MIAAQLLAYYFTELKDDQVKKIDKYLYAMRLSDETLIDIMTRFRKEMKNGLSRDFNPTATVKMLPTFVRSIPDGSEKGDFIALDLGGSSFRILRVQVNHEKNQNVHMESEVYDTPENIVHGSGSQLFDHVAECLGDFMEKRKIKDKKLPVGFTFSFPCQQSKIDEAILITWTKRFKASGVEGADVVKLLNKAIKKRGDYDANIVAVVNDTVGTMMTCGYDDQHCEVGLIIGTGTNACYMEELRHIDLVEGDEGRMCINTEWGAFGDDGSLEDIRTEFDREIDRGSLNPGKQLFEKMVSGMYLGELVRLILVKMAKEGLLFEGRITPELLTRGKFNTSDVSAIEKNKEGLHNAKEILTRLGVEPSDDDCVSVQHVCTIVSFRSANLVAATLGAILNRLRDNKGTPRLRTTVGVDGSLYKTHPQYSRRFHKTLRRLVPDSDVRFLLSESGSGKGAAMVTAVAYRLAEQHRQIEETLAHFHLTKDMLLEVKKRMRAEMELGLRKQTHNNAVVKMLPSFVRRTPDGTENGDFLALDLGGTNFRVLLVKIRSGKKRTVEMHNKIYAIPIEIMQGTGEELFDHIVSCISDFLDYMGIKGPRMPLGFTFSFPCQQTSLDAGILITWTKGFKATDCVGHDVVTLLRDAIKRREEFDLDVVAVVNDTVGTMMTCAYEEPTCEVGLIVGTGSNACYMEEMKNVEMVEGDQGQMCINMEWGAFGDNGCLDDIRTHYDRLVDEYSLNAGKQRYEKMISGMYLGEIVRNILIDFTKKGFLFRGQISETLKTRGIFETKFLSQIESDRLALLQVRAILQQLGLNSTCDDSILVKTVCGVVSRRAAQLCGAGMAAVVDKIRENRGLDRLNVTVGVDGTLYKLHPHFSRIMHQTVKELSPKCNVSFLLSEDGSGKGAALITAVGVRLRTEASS

[5] = molecular target: Tyrosine-protein phosphatase non-receptor type 12 (Homo sapiens, UniProt Q05209); test: SAR Selectivity Analysis of small molecule inhibitors of PEST using pCAP in a fluorescence assay. [Related pubchem assays (depositor defined):AID1779, AID1784, AID2135]; format: functional
Sequence of Tyrosine-protein phosphatase non-receptor type 12 (Q05209 whole entry): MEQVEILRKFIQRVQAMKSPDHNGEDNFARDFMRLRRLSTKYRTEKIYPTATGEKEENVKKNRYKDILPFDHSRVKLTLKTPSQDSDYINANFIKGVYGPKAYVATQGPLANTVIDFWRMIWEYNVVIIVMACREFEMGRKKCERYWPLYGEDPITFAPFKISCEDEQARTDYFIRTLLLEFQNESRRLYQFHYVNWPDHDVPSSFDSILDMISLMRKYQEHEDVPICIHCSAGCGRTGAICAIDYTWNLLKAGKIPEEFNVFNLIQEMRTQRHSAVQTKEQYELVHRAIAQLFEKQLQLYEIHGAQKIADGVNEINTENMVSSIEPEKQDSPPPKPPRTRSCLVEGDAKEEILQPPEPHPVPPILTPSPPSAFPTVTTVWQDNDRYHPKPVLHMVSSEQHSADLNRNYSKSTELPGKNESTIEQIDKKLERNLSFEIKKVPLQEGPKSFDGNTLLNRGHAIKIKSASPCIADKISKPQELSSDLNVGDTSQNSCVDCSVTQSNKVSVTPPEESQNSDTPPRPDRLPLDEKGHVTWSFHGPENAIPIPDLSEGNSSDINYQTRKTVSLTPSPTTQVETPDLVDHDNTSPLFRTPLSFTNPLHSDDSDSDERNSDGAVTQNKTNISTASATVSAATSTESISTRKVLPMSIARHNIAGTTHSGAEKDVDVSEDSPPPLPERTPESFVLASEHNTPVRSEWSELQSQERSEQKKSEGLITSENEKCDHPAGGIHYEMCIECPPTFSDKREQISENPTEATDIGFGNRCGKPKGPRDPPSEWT

[6] = molecular target: T4, Tyrosine-protein phosphatase non-receptor type 7 (Homo sapiens, UniProt P35236); test: HePTP (PTPN7) phosphatase inhibitor potency, SAR follow-up, biochemical, set 2 (AID 449736); format: functional
T4 sequence (P35236 whole entry): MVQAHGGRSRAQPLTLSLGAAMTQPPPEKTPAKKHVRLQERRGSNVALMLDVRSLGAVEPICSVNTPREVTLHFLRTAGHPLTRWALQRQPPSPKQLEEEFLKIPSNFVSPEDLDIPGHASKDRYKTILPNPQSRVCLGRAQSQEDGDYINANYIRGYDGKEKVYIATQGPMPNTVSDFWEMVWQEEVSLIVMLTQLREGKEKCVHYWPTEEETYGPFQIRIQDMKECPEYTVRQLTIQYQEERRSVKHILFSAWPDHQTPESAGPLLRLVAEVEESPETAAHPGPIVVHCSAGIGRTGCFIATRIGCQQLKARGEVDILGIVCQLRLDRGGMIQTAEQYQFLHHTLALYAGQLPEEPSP

[7] = molecular target: T5, Dual specificity protein phosphatase 3 (Homo sapiens, UniProt P51452); test: SAR VHR1 Fluorescent Assay for In Vitro dose response studies. [Related pubchem assays (depositor defined):AID1654, AID1661, AID1878, AID1992, AID2004, AID2070, AID2085]; format: functional
T5 sequence (P51452 whole entry): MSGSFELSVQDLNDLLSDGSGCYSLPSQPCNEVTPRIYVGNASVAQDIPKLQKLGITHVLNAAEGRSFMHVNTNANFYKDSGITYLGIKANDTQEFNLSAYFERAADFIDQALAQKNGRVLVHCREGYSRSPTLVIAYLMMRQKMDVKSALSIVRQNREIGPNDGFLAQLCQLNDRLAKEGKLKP

[8] = molecular target: T4, Tyrosine-protein phosphatase non-receptor type 7; test: redox-dependent HePTP inhibition, mechanism study, biochemical, fluorescence (AID 2068); format: functional
[9] = molecular target: T5, Dual specificity protein phosphatase 3; test: SAR VHR1 absorbance Assay for In Vitro dose response studies. [Related pubchem assays (depositor defined):AID1654, AID1661, AID1878, AID1992, AID2004]
[10] = molecular target: T6, Tyrosine-protein phosphatase non-receptor type 22 (Homo sapiens, UniProt Q9Y2R2); test: LYP (PTPN22) phosphatase inhibitor potency, SAR follow-up, biochemical, pCAP fluorogenic substrate, fluorescence, set 3 (AID 449727); format: functional
T6 sequence (Q9Y2R2 whole entry): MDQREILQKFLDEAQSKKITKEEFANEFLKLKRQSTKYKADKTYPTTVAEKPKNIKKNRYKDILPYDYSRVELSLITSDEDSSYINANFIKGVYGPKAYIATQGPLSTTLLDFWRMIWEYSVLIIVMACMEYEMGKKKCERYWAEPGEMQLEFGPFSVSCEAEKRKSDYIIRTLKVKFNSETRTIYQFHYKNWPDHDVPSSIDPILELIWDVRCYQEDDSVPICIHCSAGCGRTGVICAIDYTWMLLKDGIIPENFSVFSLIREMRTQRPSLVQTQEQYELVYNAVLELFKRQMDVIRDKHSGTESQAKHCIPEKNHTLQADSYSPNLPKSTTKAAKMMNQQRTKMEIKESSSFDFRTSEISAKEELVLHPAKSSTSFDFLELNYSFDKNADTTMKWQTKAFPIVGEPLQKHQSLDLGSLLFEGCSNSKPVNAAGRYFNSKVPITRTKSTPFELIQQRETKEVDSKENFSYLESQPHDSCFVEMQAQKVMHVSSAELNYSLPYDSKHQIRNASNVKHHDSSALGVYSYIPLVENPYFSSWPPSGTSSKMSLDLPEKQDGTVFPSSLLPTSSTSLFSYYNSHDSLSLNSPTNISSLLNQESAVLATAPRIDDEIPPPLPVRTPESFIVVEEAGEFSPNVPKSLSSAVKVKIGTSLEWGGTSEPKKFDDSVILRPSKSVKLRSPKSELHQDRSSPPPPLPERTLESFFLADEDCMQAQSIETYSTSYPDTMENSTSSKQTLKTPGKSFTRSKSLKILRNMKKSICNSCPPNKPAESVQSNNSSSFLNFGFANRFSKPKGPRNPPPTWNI

[11] = molecular target: T7, Dual specificity protein phosphatase 6 (Rattus norvegicus, UniProt Q64346); format: functional;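 further: confirmatory in vitro dose-response testing of MKP-3 inhibition; recombinant His-tagged MKP-3 made in E. coli BL21 with OMFP substrate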
T7 sequence (Q64346 whole entry): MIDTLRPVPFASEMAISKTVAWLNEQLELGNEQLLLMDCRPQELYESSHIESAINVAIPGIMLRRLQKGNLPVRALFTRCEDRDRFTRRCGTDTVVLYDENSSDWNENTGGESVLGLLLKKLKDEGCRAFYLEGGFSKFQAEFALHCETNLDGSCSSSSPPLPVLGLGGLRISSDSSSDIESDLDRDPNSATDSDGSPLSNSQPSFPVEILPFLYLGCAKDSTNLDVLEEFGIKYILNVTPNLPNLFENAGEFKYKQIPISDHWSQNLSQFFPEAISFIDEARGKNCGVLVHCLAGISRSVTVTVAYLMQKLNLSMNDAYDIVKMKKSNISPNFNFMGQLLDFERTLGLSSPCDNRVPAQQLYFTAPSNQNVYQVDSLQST

[12] = molecular target: T6, Tyrosine-protein phosphatase non-receptor type 22; test: SAR LYP1 Fluorescent Assay using OMFP substrate for In Vitro dose response studies - Set 3. [Related pubchem assays (depositor defined):AID1779, AID1784, AID2140, AID2686]; format: functional

With Cc1cccc(C)c1N1CCN(c2ccc3nnc(C(F)(F)F)n3n2)CC1 the EC50 [1] was 70 µM (active) and the “Absolute IC50 (CHOP)” value [2] was 10 µM.

For O=NNc1nc2ccccc2n1Cc1ccccc1, the EC50 [3] was 18.3 µM (active) and the EC50 [4] was > 80 µM (inactive).

For CSc1ccc(OCC(=O)O)cc1C, the IC50 [5] was > 100 µM (inactive), the IC50 [6] was > 100 µM (inactive) and the IC50 [7] was > 99 µM (inactive). The IC50 [8] was > 100 µM (inactive), the IC50 [9] was > 100 µM (inactive) and the IC50 [10] was > 100 µM (inactive). For the same molecule, the IC50 [11] was > 99 µM (inactive) and the IC50 [12] was > 100 µM (inactive).
